Read-outs that look alike come from different tables or passages of the source.
Molecular target: T1, β-catenin/Tcf protein-protein interaction (Homo sapiens, UniProt P35222)
T1 construct: Wild-type β-catenin (residues 138-781) were cloned into a pET-28b vector; 6×histidine (C); made in house; host or cells: E. coli BL21 DE3
T1 sequence (P35222 138-781): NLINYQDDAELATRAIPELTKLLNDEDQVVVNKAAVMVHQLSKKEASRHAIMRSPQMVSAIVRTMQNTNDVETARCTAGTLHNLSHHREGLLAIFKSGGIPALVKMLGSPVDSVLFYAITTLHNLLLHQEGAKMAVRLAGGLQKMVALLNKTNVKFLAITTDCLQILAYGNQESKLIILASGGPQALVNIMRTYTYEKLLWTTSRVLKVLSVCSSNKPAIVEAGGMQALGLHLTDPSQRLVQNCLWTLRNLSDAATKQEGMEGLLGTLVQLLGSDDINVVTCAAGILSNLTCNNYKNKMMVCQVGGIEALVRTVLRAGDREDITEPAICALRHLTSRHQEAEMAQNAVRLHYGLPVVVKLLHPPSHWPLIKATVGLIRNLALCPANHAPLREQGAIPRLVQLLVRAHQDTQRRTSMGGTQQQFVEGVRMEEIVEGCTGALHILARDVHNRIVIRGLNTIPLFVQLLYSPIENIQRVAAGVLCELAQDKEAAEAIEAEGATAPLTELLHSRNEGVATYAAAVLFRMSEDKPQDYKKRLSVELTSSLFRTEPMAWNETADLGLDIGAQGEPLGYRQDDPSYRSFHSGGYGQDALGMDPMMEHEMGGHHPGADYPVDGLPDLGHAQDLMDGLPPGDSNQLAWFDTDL
Experiment: FP competitive inhibition assay
Type: binding
Method: Protein Expression and Purification. Wild-type β-catenin (residues 138-781) were cloned into a pET-28b vector carrying a C-terminal 6×histidine (Novagen) and transformed into E. coli BL21 DE3 (Novagen). Cells were cultured in LB medium with 30 μg/mL kanamycin until the OD600 was approximately 0.8, and then protein expression was induced with 400 μM of IPTG at 20° C. overnight. Cells were lysed by sonication. The proteins were purified by Ni-NTA affinity chromatography (30210, Qiagen) and dialyzed against a buffer containing 20 mM of Tris (pH 8.8), 100 mM NaCl, 10% glycerol, and 3 mM DTT. The purity of β-catenin was set to >95% as determined by SDS-PAGE gel analysis. Native non-denaturing gel electrophoresis experiment and the thermal-shift assay on an iCycler iQ Real Time Detection System (Bio-Rad) were performed for each purified protein. In the thermal shift assay, protein unfolding was evaluated through measuring the fluorescence changes of fluorescent dye Sypro Orange with purified β-catenin proteins. A temperature increment of 1° C./min was applied to monitor protein stability and detect protein aggregation. CD spectra were measured on a J-815 spectropolarimeter (Jasco). All spectra were recorded using a 1 mm path-length quartz cell. The CD spectra were averaged over three scans, and the wavelength was scanned from 260 to 190 nm in step of 1 nm. All spectra were recorded at room temperature, and the baseline was corrected by subtracting the CD spectra of a blank control containing all of the substances except protein. Samples were prepared at a concentration around 1-5 μM in a buffer of 10 mM potassium phosphate and 100 mM potassium fluoride at pH 7.0 to ensure that the transmission of light through the sample was not restricted. All proteins were stable, and no aggregation was observed under storage or assay conditions. Proteins were aliquoted and stored at −80° C. C-terminally fluorescein-labeled human Tcf4 (residues 7-51) was synthesized and HPLC purified with purity >95%. The structures were validated by LC/MS (liquid chromatography/mass spectrometry).
FP Assays. The procedures for the FP competitive inhibition assays have been described previously (Zhang, M.; Huang, Z.; Yu, B.; Ji, H. New homogeneous high-throughput assays for inhibitors of β-catenin/Tcf protein-protein interactions Anal. Biochem. 2012, 424, 57-63; Zhang, M.; Catrow, J. L.; Ji, H. High-throughput selectivity assays for small-molecule inhibitors of β-catenin/T-cell factor protein-protein interactions. ACS Med. Chem. Lett. 2013, 4, 306-311). Briefly, all of the tested compounds were prepared as 10 mM DMSO stocks. In the primary screen, the concentrations of the compounds and DMSO were set to 50 μM and 1% (v/v). Only the compounds which FP signal decreases were greater than 50% in the single-point β-catenin/Tcf assay were evaluated by counter screen. […] In the FP competitive inhibition assay, 10 nM human β-catenin and 2.5 nM of C-terminally fluorescein-labeled human Tcf4 were incubated in an assay buffer of 137 mM NaCl, 2.7 mM KCl, 10 mM Na2HPO4, 2 mM KH2PO4, 100 μg/mL of bovine γ-globulin, and 0.01% Triton-X100 for 15 min at 4° C. Bovine γ-globulin and Triton-X100 were included in the assay buffer to decrease the likelihood of compound acting by aggregate formation. Different concentrations of the tested compounds in the assay buffer were added to each test plate to make a final volume of 100 μL. Each assay plate was covered black and gently mixed on an orbital shaker at 4° C. for 1.5 h to reach equilibrium before the polarization values were read. The IC50 value was determined by nonlinear least-square analysis of GraphPad Prism 5.0. The Ki values were derived (Nikolovska-Coleska, Z.; Wang, R.; Fang, X.; Pan, H.; Tomita, Y.; Li, P.; Roller, P. P.; Krajewski, K.; Saito, N. G.; Stuckey, J. A.; Wang, S. Development and optimization of a binding assay for the XIAP BIR3 domain using fluorescence polarization. Anal. Biochem. 2004, 332, 261-273). […]

[1] = Assay 1, mean ± SD (n = 3), read-out: Ki ± SD, Assay 1
[2] = Assay 2, mean ± SD (n = 3), read-out: Ki ± SD, Assay 2
[3] = Assay 3, mean ± SD (n = 3), read-out: Ki ± SD, Assay 3

| Compound | Ki [1] [µM] | Ki [2] [µM] | Ki [3] [µM] |
| --- | --- | --- | --- |
| O=C(O)CCn1c(CCc2nc3ccccc3s2)c(CCc2ccc(F)cc2)c2cc(C(=O)O)ccc21 [Compound 38, 2-(2-(benzo[d]thiazol-2-yl)ethyl)-1-(2-carboxyethyl)-3-(4-fluorophenethyl)-1H-indole-5-carboxylic acid] | 19 ± 2.8 |  |  |
| O=C(O)CCn1c(CCc2nc3ccccc3s2)c(CCc2ccccc2)c2cc(C(=O)O)ccc21 [Compound 37, 2-(2-(Benzo[d]thiazol-2-yl)ethyl)-1-(2-carboxyethyl)-3-phenethyl-1H-indole-5 carboxylic acid] | 28 ± 6.8 |  |  |
| Cc1ccc(CCc2c(-c3cn[nH]c3)n(CCc3nn[nH]n3)c3ccc(C(=O)NCc4ccon4)cc23)cc1 [Compound 97, 1-(2-(2H-tetrazol-5-yl)ethyl)-N-(isoxazol-3-ylmethyl)-3-(4-methylphenethyl)-2-(1H-pyrazol-4-yl)-1H-indole-5-carboxamide] | 17 ± 1.6 |  |  |
| O=C(O)c1ccc2c(c1)c(CCc1ccncc1)cn2CCc1nn[nH]n1 [Compound 16, 1-(2-(2H-tetrazol-5-yl)ethyl)-3-(2-(pyridin-4-yl)ethyl)-1H-indole-5-carboxylic acid] | 18 ± 1.6 | 18 ± 0.67 |  |
| COc1ccc2sc(CCc3c(CCc4ccc(Cl)cc4)c4cc(C(=O)NCc5ccccc5Cl)ccc4n3CCc3nn[nH]n3)nc2c1 [Compound 51, 1-(2-(2H-tetrazol-5-yl)ethyl)-N-(2-chlorobenzyl)-3-(4-chlorophenethyl)-2-(2-(5-methoxybenzo[d]thiazol-2-yl)ethyl)-1H-indole-5-carboxamide] | 3.6 ± 0.6 | 4.8 ± 0.84 |  |
| O=C(O)c1ccc2c(c1)c(CCc1ccccc1)c(CCc1nc3ccccc3s1)n2CCc1nn[nH]n1 [Compound 25, 1-(2-(2H-tetrazol-5-yl)ethyl)-2-(2-(benzo[d]thiazol-2-yl)ethyl)-3-phenethyl-1H-indole-5-carboxylic acid] | 11 ± 3.9 | 4.1 ± 0.88 |  |
| Cc1ccc(CCc2c(-c3csc(C(F)F)c3)n(CCc3nn[nH]n3)c3ccc(C(=O)O)cc23)cc1 [Compound 80, 1-(2-(2H-tetrazol-5-yl)ethyl)-2-(5-(difluoromethyl)thiophen-3-yl)-3-(4-methylphenethyl)-1H-indole-5-carboxylic acid] | 0.92 ± 0.1 | 1.9 ± 0.13 |  |
| O=C(O)CCn1c(CCc2nc3ccccc3s2)c(CCc2ccc(Cl)cc2)c2cc(C(=O)O)ccc21 [Compound 39, 2-(2-(benzo[d]thiazol-2-yl)ethyl)-1-(2-carboxyethyl)-3-(4-chlorophenethyl)-1H-indole-5-carboxylic acid] | 7.9 ± 1.5 | 1.4 ± 0.45 |  |
| O=C(O)c1ccc2c(c1)c(CCc1ccc(Cl)cc1)c(CCc1nc3cc(Cl)ccc3s1)n2CCc1nn[nH]n1 [Compound 30, 1-(2-(2H-tetrazol-5-yl)ethyl)-2-(2-(5-chlorobenzo[d]thiazol-2-yl)ethyl)-3-(4-chlorophenethyl)-1H-indole-5-carboxylic acid] | 1.1 ± 0.27 | 1.6 ± 0.63 | 2.5 ± 1.5 |

More lines, now with the values ahead:

| Ki [1] [µM] | Ki [2] [µM] | Ki [3] [µM] | Compound |
| --- | --- | --- | --- |
| 0.81 ± 0.052 | 8.2 ± 0.19 | 0.52 ± 0.048 | O=C(O)c1ccc2c(c1)c(CCC1CCCCC1)c(-c1ccsc1)n2CCc1nn[nH]n1 [Compound 85, 1-(2-(2H-tetrazol-5-yl)ethyl)-3-(2-cyclohexylethyl)-2-(thiophen-3-yl)-1H-indole-5-carboxylic acid] |
| 3.1 ± 0.068 | 15 ± 2.8 |  | O=C(NCc1ccon1)c1ccc2c(c1)c(CCC1CCCCC1)c(-c1ccsc1)n2CCc1nn[nH]n1 [Compound 95, 1-(2-(2H-tetrazol-5-yl)ethyl)-3-(2-cyclohexylethyl)-N-(isoxazol-3-ylmethyl)-2-(thiophen-3-yl)-1H-indole-5-carboxamide] |
| 4.6 ± 0.36 | 3.5 ± 0.71 |  | O=C(O)c1ccc2c(c1)c(CCc1cccc3ccccc13)cn2CCc1nn[nH]n1 [Compound 14, 1-(2-(2H-tetrazol-5-yl)ethyl)-3-(2-(naphthalen-1-yl)ethyl)-1H-indole-5-carboxylic acid] |
| 32 ± 3.9 |  |  | Cc1ccc(CCc2cn(CCc3nn[nH]n3)c3ccc(C(=O)O)cc23)nc1 [Compound 17, 1-(2-(2H-tetrazol-5-yl)ethyl)-3-(2-(5-methylpyridin-2-yl)ethyl)-1H-indole-5-carboxylic acid] |
| 1.3 ± 0.4 |  |  | COCCOc1ccc2sc(CCc3c(CCc4ccc(Cl)cc4)c4cc(C(=O)NCc5ccc(Cl)cc5)ccc4n3CCc3nn[nH]n3)nc2c1 [Compound 46, 1-(2-(2H-tetrazol-5-yl)ethyl)-N-(4-chlorobenzyl)-3-(4-chlorophenethyl)-2-(2-(5-(2-methoxy-ethoxy)benzo[d]thiazol-2-yl)ethyl)-1H-indole-5-carboxamide] |
| 36 ± 9.5 | 10 ± 2.2 |  | O=C(O)CCn1c(CCc2nc3ccccc3[nH]2)c(CCc2ccc(Cl)cc2)c2cc(C(=O)O)ccc21 [Compound 41, 2-(2-(1H-benzo[d]imidazol-2-yl)ethyl)-1-(2-carboxyethyl)-3-(4-chlorophenethyl)-1H-indole-5-carboxylic acid] |
| > 24 |  |  | CNC(=O)c1ccc2c(c1)c(CCc1ccc(C)cc1)c(-c1ccsc1)n2CCc1nn[nH]n1 [Compound 89, 1-(2-(2H-tetrazol-5-yl)ethyl)-N-methyl-3-(4-methylphenethyl)-2-(thiophen-3-yl)-1H-indole-5-carboxamide] |
| 6.1 ± 0.76 |  |  | COc1ccc2sc(CCc3c(CCc4ccc(Cl)cc4)c4cc(C(=O)NCC5CCOC5)ccc4n3CCc3nn[nH]n3)nc2c1 (stereo not drawn) [Compound 65, 1-(2-(2H-tetrazol-5-yl)ethyl)-3-(4-chlorophenethyl)-2-(2-(5-methoxybenzo[d]thiazol-2-yl)ethyl)-N-((tetrahydrofuran-3-yl)methyl)-1H-indole-5-carboxamide] |
| 8.4 ± 0.58 | 30 ± 1.9 |  | Cc1ccc(CCc2c(-c3cccnc3)n(CCc3nn[nH]n3)c3ccc(C(=O)O)cc23)cc1 [Compound 82, 1-(2-(2H-tetrazol-5-yl)ethyl)-3-(4-methylphenethyl)-2-(pyridin-3-yl)-1H-indole-5-carboxylic acid] |
| 3.7 ± 0.19 | 32 ± 3.8 |  | COc1ccc2sc(CCc3c(CCc4ccc(Cl)cc4)c4cc(C(=O)NCC(O)CO)ccc4n3CCc3nn[nH]n3)nc2c1 (stereo not drawn) [Compound 66, 1-(2-(2H-tetrazol-5-yl)ethyl)-3-(4-chlorophenethyl)-N-(2,3-dihydroxypropyl)-2-(2-(5-methoxybenzo[d]thiazol-2-yl)ethyl)-1H-indole-5-carboxamide] |

Reference: patent publication US11530186B2, “Inhibitors for the β-catenin / T-cell factor protein-protein interaction” (H. LEE MOFFITT CANCER CENTER AND RESEARCH INSTITUTE, INC., priority 2018, dated 2022)
